Measured values reported in ChEMBL document CHEMBL1201862, “PubChem BioAssay data set” (2004).
Calls of active or inactive are those of the source.

Key:
[1] = molecular target: Lysine-specific demethylase 4C (Homo sapiens, UniProt Q9H3R0); experiment: inhibition of JMJD2C H3K9me3 demethylation – biochemical, DELFIA europium, cherry-picked samples, dose response (AID 488835); assay type: functional
Cytochrome P450 1A2 = molecular target: T1, Cytochrome P450 1A2 (Homo sapiens, UniProt P05177);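 further: PubChem cytochrome P450 panel assay, CYP1A2 panel member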
T1 sequence (P05177 whole entry): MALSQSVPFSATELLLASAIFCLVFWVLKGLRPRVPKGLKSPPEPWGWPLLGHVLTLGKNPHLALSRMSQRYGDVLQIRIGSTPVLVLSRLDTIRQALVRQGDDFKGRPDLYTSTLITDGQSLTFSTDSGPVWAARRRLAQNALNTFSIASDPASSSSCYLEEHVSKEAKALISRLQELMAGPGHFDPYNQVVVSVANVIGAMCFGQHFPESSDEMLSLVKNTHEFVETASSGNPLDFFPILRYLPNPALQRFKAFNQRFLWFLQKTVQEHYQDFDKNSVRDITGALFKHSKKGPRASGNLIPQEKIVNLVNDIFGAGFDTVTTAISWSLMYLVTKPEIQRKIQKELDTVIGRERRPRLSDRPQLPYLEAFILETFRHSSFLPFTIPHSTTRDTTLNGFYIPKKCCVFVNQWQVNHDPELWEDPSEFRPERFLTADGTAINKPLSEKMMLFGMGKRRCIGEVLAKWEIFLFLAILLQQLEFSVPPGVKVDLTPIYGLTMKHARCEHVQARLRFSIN

Cytochrome P450 2D6 = Cytochrome P450 2D6 (Homo sapiens, UniProt P10635);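 further: CYP2D6 member of a cytochrome P450 panel assay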
Cytochrome P450 2C19 = Cytochrome P450 2C19 (Homo sapiens, UniProt P33261); experiment: Cytochrome panel assay with activity outcomes. Panel member name: p450-cyp2c19 Compounds with AC50 equal or less than 10 uM are considered active; assay type: functional; settings: read-out: AC50
[2] = molecular target: T2, Replicative DNA helicase DnaB (Mycobacterium tuberculosis, UniProt P9WMR3); experiment: DnaB intein splicing inhibitors, dose response, biochemical, cell-free fluorescence (AID 449749); assay type: functional
T2 sequence (P9WMR3 whole entry): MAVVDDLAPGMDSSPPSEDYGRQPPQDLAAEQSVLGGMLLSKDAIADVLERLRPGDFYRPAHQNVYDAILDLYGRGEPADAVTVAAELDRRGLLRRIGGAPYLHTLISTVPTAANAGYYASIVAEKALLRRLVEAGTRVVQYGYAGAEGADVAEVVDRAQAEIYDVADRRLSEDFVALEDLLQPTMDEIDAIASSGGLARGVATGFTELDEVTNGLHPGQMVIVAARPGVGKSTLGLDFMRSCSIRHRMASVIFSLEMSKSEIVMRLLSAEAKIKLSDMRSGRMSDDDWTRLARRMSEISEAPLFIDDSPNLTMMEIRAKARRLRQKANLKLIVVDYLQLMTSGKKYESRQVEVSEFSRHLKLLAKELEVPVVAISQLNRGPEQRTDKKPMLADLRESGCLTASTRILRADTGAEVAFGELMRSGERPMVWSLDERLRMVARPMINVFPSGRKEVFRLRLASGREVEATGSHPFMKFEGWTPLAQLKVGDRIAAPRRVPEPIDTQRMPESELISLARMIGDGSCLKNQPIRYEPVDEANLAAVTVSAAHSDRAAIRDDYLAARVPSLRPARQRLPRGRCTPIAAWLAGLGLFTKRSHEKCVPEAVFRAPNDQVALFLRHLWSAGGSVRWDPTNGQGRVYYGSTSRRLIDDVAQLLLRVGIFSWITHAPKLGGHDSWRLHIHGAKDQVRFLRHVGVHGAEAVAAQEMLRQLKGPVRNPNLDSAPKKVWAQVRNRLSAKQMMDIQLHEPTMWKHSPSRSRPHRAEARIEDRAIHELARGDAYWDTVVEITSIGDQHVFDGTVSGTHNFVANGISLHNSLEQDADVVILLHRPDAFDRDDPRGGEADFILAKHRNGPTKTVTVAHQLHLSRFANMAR

Protein RecA = molecular target: T3, Protein RecA (Mycobacterium tuberculosis, UniProt P9WHJ3); experiment: Fluorescence Cell-Free Homogeneous Dose Retest to Identify Inhibitors of RecA-Intein Splicing Activity. [Related pubchem assays (depositor defined):AID2097, AID2223, AID489010, AID492950]; assay type: functional
T3 sequence (P9WHJ3 whole entry): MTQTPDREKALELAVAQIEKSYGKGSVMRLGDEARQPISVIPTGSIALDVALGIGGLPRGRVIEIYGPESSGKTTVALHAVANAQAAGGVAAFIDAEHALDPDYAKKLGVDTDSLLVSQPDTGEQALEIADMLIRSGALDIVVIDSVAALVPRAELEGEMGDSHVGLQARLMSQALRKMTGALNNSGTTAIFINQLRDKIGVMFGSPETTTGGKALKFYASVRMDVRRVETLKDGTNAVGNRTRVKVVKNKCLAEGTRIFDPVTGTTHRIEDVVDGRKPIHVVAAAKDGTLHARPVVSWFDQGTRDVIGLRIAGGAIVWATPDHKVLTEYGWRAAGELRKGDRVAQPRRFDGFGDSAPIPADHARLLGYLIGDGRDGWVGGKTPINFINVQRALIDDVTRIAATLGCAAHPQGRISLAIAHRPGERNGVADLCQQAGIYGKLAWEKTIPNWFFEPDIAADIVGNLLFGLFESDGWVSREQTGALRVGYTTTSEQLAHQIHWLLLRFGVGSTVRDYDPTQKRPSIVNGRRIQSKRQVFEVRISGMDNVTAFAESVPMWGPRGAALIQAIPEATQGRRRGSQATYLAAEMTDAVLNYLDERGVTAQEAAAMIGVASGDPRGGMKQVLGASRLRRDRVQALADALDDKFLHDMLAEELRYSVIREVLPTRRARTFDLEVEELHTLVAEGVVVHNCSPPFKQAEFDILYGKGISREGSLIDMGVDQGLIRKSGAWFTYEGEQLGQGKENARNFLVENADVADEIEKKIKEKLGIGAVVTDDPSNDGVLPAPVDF

[3] = A cytotoxicity screen of small molecule inhibitors of the PhoP region in Salmonella typhi identified in the primary screen. [Related pubchem assays: 1850, 1864, 1985 ]; assay type: functional
Exodeoxyribonuclease V = Exodeoxyribonuclease V (Escherichia coli (strain K12), UniProt P04993+P07648+P08394); experiment: RecBCD inhibition via phage-restricted bacterial growth – absorbance, V66 E. coli, mutant T4 phage, counter-screen for AddAB inhibitor project, dose response (AID 492957); assay type: functional, cell-based, Escherichia coli str. K-12 substr. MG1655
[4] = molecular target: T4, Apoptotic protease-activating factor 1 (Homo sapiens, UniProt O14727); assay type: functional
T4 sequence (O14727 whole entry): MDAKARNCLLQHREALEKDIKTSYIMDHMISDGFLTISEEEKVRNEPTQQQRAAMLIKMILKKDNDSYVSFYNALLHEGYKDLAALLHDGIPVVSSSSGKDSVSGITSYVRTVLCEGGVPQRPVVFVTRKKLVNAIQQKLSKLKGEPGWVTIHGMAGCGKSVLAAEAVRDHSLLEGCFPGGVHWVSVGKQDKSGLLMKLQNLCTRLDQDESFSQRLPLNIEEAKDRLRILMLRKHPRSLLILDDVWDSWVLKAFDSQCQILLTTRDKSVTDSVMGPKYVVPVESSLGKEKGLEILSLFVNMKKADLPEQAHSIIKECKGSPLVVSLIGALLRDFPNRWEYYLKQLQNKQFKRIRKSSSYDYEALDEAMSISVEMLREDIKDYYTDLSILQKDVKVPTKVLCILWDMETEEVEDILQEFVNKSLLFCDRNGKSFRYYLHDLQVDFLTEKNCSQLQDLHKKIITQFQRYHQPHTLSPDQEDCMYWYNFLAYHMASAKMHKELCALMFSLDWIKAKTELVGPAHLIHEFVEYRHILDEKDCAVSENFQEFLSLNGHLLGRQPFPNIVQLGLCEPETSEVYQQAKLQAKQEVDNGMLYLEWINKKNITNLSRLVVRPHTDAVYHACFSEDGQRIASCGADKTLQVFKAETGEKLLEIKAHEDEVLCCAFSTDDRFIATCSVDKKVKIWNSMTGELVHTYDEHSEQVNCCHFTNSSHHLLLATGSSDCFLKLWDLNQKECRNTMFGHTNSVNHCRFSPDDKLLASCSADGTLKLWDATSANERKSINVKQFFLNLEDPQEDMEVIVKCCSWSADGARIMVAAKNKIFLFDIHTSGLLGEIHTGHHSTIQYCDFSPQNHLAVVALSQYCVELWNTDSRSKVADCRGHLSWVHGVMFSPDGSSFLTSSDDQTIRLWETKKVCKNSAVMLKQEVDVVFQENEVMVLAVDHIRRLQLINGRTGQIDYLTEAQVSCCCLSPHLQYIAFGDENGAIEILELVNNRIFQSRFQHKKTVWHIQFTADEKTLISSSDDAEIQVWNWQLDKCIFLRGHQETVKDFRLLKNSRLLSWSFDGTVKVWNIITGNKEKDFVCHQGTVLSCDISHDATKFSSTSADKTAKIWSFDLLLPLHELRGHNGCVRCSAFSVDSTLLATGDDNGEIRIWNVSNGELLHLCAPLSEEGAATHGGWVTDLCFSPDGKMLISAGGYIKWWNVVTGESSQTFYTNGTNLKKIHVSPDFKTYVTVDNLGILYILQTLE

INS1 = experiment: INS-1E survival protection against cytokine death – cell-based, luminescence, retest, dose response (AID 449756); assay type: functional; settings: Rattus norvegicus;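 further: cell death triggered by IL-1 beta plus TNF-alpha plus IFN-gamma mixture; protective hits raise ATP signal compared with cytokine alone wells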
[5] = Counterscreen for AddAB inhibitors: absorbance-based bacterial cell-based high throughput dose response assay for inhibitors of bacterial viability. [Related pubchem assays (depositor defined):AID435030, AID449728, AID449731, AID488942, AID488955, AID488956]; assay type: functional
Cytochrome P450 2C9 = Cytochrome P450 2C9 (Homo sapiens, UniProt P11712)
Galanin receptor type 3 = Galanin receptor type 3 (Homo sapiens, UniProt O60755); experiment: Fluorescence-based cell-based primary high throughput dose response assay to identify antagonists of the Galanin Receptor 3 (GalR3).; assay type: functional
[6] = fluconazole-exposed Candida albicans growth modulators – fluorescence, retest, confirmation (AID 2467); assay type: functional, cell-based
cells [7] = assay type: functional, cell-based; settings: HEK-CNG
[8] = NIH-3T3 fibroblast cytotoxicity, dose response, cytotoxicity control, cell-based, fluorescence, Alamar Blue, secondary assay (AID 2327); assay type: functional;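 further: NIH-3T3 mouse fibroblasts cultured with fluconazole at 8 µg/mL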
cells [9] = assay type: functional, cell-based
cells [10] = assay type: functional, cell-based; remark: listed apart in the source
[11] = molecular target: Induced myeloid leukemia cell differentiation protein Mcl-1 (Homo sapiens, UniProt Q07820); assay type: functional
[12] = molecular target: Bifunctional protein GlmU (Mycobacterium tuberculosis, UniProt P9WMN3); experiment: Inhibitors of Mycobacterial Glucosamine-1-phosphate acetyl transferase (GlmU). Secondary screen.; parameters: species or system Mycobacterium tuberculosis H37Rv
[13] = Luminescence Cell-Based Dose Response HTS to Identify Inhibitors of 5'UTR Stem-Loop Driven Prion Protein mRNA Translation in H4 Neuroglioblastoma Cells. [Related pubchem assays: 1827 (Project Summary), 1813 (Primary HTS)]; assay type: functional
Caspase-6 = molecular target: T5, Caspase-6 (Homo sapiens, UniProt P55212); experiment: inhibition of CASP6 peptide cleavage – biochemical, VEID-R110 fluorescence, cherry-pick, dose response (AID 720632)
T5 sequence (P55212 whole entry): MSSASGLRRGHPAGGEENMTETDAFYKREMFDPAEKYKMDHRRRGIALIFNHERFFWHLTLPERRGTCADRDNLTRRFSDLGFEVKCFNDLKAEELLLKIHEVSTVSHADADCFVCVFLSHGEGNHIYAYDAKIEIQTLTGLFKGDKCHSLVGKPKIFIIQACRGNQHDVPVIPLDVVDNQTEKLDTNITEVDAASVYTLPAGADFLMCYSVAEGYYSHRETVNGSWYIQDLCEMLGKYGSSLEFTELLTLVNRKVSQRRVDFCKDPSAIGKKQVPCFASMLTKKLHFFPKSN

[14] = luciferase reporter signal suppression in cells – H4 neuroglioma cells, luminescence, dose response (AID 1990); assay type: functional, cell-based
[15] = alpha-synuclein stem-loop luciferase translation blockers – H4 neuroglioma cells, luminescence, confirmation (AID 1988); assay type: functional, cell-based

Chain of Cytochrome P450 2C19 (P33261 whole entry): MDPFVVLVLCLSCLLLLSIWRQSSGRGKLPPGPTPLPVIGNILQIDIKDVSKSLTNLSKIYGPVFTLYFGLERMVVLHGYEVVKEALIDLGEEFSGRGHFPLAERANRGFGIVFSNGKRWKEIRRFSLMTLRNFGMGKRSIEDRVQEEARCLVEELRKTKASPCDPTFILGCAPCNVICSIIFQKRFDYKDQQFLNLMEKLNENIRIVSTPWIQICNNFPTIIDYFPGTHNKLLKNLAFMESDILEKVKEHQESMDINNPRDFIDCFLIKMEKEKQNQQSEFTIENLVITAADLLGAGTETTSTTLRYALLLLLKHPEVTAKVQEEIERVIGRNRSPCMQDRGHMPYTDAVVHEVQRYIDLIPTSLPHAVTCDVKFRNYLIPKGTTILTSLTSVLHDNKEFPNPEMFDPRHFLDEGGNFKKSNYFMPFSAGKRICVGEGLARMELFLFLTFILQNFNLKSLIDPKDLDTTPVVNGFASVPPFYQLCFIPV
Chain of Cytochrome P450 2D6 (P10635 whole entry): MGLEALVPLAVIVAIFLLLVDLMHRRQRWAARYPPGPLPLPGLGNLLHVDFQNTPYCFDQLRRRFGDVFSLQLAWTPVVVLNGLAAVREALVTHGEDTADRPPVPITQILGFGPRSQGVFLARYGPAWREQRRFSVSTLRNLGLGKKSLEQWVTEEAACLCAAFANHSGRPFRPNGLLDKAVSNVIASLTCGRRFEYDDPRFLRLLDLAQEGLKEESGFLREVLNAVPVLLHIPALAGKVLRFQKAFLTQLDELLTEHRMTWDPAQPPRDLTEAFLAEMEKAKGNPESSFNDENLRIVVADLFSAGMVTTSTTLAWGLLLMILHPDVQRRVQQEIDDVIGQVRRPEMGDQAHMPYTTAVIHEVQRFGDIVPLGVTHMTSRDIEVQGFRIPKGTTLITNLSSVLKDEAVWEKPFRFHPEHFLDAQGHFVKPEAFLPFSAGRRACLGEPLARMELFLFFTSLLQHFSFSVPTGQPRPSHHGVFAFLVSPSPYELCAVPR
Chain of Exodeoxyribonuclease V (P04993 whole entry): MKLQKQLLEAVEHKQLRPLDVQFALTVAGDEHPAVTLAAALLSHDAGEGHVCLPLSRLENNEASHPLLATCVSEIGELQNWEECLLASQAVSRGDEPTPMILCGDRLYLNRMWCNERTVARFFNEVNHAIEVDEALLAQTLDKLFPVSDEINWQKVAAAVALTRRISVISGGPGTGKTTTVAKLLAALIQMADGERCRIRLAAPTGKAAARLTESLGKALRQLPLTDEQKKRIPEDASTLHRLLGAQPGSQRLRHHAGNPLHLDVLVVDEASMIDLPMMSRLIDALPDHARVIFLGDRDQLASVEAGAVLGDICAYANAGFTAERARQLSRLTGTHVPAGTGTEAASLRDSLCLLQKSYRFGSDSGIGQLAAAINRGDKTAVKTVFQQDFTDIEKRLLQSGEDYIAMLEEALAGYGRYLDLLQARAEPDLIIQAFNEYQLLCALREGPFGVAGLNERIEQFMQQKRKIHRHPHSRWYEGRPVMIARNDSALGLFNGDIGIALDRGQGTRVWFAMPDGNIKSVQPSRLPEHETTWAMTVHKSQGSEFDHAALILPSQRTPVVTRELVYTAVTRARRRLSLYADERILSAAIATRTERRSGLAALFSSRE
Chain of Exodeoxyribonuclease V (P07648 whole entry): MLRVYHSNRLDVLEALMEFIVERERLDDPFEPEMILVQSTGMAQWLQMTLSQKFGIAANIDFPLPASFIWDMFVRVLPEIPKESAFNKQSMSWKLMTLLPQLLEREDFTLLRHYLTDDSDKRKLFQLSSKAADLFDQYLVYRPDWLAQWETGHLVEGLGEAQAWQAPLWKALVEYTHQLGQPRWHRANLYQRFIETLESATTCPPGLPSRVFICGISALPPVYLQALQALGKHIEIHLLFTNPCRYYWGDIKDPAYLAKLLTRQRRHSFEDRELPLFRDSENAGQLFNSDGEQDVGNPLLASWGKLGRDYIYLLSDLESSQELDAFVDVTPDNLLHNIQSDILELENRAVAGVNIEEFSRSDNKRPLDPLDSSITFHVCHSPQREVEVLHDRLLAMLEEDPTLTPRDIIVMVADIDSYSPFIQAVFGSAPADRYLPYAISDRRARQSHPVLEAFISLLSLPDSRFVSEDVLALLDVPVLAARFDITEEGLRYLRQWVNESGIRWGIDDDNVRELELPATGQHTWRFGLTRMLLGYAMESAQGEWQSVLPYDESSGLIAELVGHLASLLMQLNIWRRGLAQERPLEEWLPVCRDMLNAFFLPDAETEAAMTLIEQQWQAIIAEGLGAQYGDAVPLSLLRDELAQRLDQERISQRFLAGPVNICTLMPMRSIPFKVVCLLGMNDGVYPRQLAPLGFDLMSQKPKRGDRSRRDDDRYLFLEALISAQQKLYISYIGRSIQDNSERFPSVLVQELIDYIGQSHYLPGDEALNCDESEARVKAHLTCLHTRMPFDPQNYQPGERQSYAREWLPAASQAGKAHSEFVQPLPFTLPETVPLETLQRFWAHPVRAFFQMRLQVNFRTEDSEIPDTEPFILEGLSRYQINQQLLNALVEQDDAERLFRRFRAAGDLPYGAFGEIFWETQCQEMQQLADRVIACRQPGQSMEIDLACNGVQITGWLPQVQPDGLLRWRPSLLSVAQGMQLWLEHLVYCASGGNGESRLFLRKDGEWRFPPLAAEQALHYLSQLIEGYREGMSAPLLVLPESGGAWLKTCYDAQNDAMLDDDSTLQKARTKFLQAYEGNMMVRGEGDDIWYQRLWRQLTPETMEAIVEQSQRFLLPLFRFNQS
Chain of Exodeoxyribonuclease V (P08394 whole entry): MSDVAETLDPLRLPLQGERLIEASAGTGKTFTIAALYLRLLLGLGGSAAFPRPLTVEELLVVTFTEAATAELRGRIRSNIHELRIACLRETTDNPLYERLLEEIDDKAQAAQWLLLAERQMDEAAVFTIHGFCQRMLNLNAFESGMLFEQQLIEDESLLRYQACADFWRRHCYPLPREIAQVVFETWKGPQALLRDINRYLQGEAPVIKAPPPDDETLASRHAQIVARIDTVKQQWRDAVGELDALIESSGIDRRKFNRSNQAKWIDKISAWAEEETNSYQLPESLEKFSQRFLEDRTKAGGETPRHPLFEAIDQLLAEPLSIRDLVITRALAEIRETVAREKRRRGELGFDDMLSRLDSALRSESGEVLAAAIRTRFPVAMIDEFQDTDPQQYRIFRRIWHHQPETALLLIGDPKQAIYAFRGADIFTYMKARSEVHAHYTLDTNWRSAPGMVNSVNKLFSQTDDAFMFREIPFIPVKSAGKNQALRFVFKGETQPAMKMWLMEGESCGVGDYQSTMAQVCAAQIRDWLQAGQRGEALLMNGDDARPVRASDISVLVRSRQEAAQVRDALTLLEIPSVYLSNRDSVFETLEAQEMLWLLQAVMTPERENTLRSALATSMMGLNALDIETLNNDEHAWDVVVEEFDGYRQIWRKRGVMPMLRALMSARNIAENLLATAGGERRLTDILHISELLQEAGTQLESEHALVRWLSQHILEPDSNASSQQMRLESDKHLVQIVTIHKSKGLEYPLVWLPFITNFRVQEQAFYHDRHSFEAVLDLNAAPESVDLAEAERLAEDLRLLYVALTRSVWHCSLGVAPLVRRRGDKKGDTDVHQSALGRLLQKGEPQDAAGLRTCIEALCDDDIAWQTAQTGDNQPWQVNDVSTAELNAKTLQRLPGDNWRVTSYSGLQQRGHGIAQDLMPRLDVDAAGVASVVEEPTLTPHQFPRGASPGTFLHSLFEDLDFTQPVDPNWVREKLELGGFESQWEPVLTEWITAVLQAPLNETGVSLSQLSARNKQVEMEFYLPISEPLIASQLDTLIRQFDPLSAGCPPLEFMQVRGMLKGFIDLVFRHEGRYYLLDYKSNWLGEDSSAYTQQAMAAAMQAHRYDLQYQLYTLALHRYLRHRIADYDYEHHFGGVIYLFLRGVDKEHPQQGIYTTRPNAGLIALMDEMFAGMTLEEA
Chain of Lysine-specific demethylase 4C (Q9H3R0 whole entry): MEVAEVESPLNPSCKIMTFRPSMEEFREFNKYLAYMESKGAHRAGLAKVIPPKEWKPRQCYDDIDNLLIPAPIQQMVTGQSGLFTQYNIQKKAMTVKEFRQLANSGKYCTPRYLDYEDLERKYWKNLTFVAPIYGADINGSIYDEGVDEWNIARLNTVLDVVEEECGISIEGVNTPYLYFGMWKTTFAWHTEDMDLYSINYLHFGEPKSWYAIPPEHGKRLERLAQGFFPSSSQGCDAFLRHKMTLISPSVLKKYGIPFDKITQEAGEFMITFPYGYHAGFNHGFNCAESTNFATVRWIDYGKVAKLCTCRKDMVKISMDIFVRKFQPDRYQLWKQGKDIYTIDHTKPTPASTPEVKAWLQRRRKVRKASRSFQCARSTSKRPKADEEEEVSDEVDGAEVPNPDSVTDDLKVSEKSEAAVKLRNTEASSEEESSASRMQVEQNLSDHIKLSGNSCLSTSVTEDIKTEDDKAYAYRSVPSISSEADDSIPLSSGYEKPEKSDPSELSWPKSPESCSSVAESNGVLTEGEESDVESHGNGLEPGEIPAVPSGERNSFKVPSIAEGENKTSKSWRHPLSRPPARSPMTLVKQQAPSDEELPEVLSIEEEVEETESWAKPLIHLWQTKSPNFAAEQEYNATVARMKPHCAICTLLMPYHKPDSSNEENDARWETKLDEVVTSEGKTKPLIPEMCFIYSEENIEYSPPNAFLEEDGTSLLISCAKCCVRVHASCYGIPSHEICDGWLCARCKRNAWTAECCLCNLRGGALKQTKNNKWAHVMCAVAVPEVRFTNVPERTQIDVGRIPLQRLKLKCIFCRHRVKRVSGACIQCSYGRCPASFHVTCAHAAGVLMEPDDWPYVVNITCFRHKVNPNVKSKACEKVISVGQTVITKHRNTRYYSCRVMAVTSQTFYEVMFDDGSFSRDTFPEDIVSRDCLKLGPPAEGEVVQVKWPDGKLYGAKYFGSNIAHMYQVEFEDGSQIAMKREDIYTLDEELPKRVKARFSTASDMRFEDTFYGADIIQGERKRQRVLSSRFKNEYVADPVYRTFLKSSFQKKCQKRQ

Cc1ccc2c(c1)N(CC(=O)NCC1CCCO1)C(=O)C(C(C)C)O2 (stereo not given)
active: AC50 [1] 11.5 µM

CCc1ccc(N2CC(C(=O)N/N=C/c3cccc([N+](=O)[O-])c3)CC2=O)cc1 (stereo not given)
inconclusive: AC50 (Cytochrome P450 1A2) 3.16 µM | AC50 (Cytochrome P450 2D6) | AC50 (Cytochrome P450 2C19) 0.316 µM

CCCCNC1=CC(=O)C(=O)c2ccccc21
inactive: IC50 (Exodeoxyribonuclease V) > 119 µM | IC50 [5] > 39.5 µM
active: AC50 [2] 0.575 µM | EC50 (Protein RecA) 0.669 µM | EC50 [3] > 50 µM | IC50 [4] 6.49 µM | AC50 (INS1) 1.78 µM

COc1ccc(C(=O)Nc2cccc(-c3cnc4ccccc4n3)c2)cc1
inconclusive: AC50 (Cytochrome P450 2D6) | AC50 (Cytochrome P450 2C19) 2.24 µM | AC50 (Cytochrome P450 2C9) 1.78 µM

Nc1nonc1-n1nnc(C(=O)N/N=C/c2cc(Br)ccc2O)c1CSC1=NCCS1
inactive: IC50 (Exodeoxyribonuclease V) > 119 µM | EC50 (cells [7]) > 29.9 µM | IC50 [5] > 119 µM
> 350 µM (not active): EC50 (cells [9])
active: IC50 (Galanin receptor type 3) 1.24 µM | EC50 [6] 0.299 µM | EC50 [8] 5.49 µM | AC50 (INS1) 0.567 µM | EC50 (cells [10]) 12.6 µM

O=[N+]([O-])c1cc(/C=N/Nc2nc3ccccc3[nH]2)c(O)cc1O
active: AC50 [2] 4.22 µM | EC50 [6] 2.33 µM | AC50 [1] 3.07 µM | EC50 (Protein RecA) 6.73 µM | IC50 [11] 6.08 µM | IC50 [12] 125 µM | EC50 [13] 11.2 µM | AC50 (Caspase-6) 5.37 µM | EC50 [15] 3.81 µM | AC50 (INS1) 0.483 µM
inconclusive: EC50 [14] 9.68 µM
inactive: EC50 [8] > 150 µM
